Consider one compound from the NIST ThermoML archive (doi:10.1021/je900381r).

± gives the expanded uncertainty stated by the source.

For this data set the following is noted: Crystal; DTA.

Take `O=c1cc(-c2ccc(O)c(O)c2)oc2cc(O)cc(O)c12` [5,7,3',4'-tetrahydroxyflavone]: the Normal melting temperature was determined as 337.43 ± 1 °C.
